Each structure is given as a SMILES string.

The experiment has as its target T1, Coleoptera luciferase (Photinus pyralis, UniProt P08659).
T1 construct: purchased Toyo Ink Manufacturing Co., Ltd. PGL100
Kind of experiment: luciferin/luciferase luminescent reaction with an added sulfur reagent, measured on a luminometer. Format: biochemical. The settings on record: for RLU/200 (integrated quantity of light emitted for 200 seconds) / max RLU (maximum quantity of light emitted): 100 ng/mL luciferase; for max RLU (maximum quantity of light emitted): initial 200 seconds; for emission pattern (glow vs flash luminescence): reagent without thiol reagent, 200 seconds. The protocol:
The luciferase used was one included in a commercially available kit (Toyo Ink Manufacturing Co., Ltd.; product No. PGL100).
A “luciferase luminescent reagent” containing 20 mM tricine, 1.07 mM (MgCO3)4Mg(OH)2·5H2O, 2.67 mM magnesium sulfate, 0.1 mM EDTA, 270 μM CoA, 470 μM luciferin and 530 μM adenosine triphosphate (ATP), pH 7.8 was prepared in accordance with the formulation described in the instructions included in “PicaGene Luminescent Kit” (Toyo Ink Manufacturing Co., Ltd.; product No. PGL100), except that 33.3 mM dithiothreitol (DTT) mentioned in the instructions was not added. To the “luciferase luminescent reagent” was added sodium diethyldithiocarbamate at final concentrations of 0 mM, 0.33 mM, 3.3 mM and 33.3 mM.
An enzyme solution containing 100 ng/mL of luciferase was collected in 10 μL in a measurement cuvette of a luminometer (Berthold, LB9506). To the enzyme solution was added 100 μL of each of the “luciferase luminescent reagents” prepared above. Immediately after the addition, the resulting mixed solution was loaded on the luminometer, and the quantity of light emitted was measured for the initial 200 seconds of the reagent addition to determine the maximum quantity of light emitted (RLU/sec) during the period of measurement and the integrated quantity of light emitted for 200 seconds (RLU/200 sec) (Table 2).
(§1) A “luciferase luminescent reagent” containing 20 mM tricine, 1.07 mM (MgCO3)4Mg(OH)2·5H2O, 2.67 mM magnesium sulfate, 0.1 mM EDTA, 270 μM CoA, 470 μM luciferin and 530 μM adenosine triphosphate (ATP), pH 7.8 was prepared in accordance with the formulation described in the instructions included in “PicaGene Luminescent Kit” (Toyo Ink Manufacturing Co., Ltd.; product No. PGL100), except that 33.3 mM dithiothreitol (DTT) mentioned in the instructions was not added.
A “luciferase luminescent reagent” containing 20 mM tricine, 1.07 mM (MgCO3)4Mg(OH)2·5H2O, 2.67 mM magnesium sulfate, 0.1 mM EDTA, 270 μM CoA, 470 μM luciferin and 530 μM adenosine triphosphate (ATP), pH 7.8 was prepared in accordance with the formulation described in the instructions included in “PicaGene Luminescent Kit” (Toyo Ink Manufacturing Co., Ltd.; product No. PGL100), except that 33.3 mM dithiothreitol (DTT) mentioned in the instructions was not added. To the “luciferase luminescent reagent” was added potassium xanthogenate at final concentrations of 0 mM, 0.33 mM 3.3 mM and 33.3 mM.
To the enzyme solution was added 100 μL of each of the “luciferase luminescent reagents” prepared above. Immediately after the addition, the resulting mixed solution was loaded on the luminometer, and the quantity of light emitted was measured for the initial 200 seconds of the reagent addition to determine the maximum quantity of light emitted (RLU/sec) during the period of measurement and the integrated quantity of light emitted for 200 seconds (RLU/200 sec) (Table 2).
A “luciferase luminescent reagent” containing 20 mM tricine, 1.07 mM (MgCO3)4Mg(OH)2·5H2O, 2.67 mM magnesium sulfate, 0.1 mM EDTA, 270 μM CoA, 470 μM luciferin and 530 μM adenosine triphosphate (ATP), pH 7.8 was prepared in accordance with the formulation described in the instructions included in “PicaGene Luminescent Kit” (Toyo Ink Manufacturing Co., Ltd.; product No. PGL100), except that 33.3 mM dithiothreitol (DTT) mentioned in the instructions was not added. To the “luciferase luminescent reagent” was added 2-mercaptobenzothiazole at final concentrations of 0 mM, 0.33 mM 3.3 mM and 33.3 mM.
as §1

T1 sequence (P08659 whole entry): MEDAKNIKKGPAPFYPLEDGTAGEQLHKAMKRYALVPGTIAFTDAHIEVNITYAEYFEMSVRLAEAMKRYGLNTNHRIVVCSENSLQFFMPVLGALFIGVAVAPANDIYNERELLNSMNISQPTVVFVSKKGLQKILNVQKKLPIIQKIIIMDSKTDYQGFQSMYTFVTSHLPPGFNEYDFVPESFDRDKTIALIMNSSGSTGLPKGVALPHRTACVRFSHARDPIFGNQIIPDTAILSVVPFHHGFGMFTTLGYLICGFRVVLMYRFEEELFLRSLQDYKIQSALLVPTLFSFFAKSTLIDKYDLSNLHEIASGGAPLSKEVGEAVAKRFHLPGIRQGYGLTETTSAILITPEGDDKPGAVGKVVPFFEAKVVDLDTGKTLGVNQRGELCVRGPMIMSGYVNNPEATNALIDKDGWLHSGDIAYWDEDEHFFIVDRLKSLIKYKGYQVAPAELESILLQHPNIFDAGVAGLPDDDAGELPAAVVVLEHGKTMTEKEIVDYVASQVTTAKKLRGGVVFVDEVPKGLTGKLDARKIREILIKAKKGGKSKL

With `O[C@H](CS)[C@H](O)CS` (racemic) [DTT, dithiothreitol, reference compound], for the setting “0 to 33.3 mM”, the “integrated quantity of light emitted (RLU/for 200 sec), dependence on concentration” value was “increased with increasing DTT concentration”. The “change of the maximum quantity of light emitted (RLU/sec) as compared with the system containing no reagent (0 mM)” value (0.33 mM and 3.3 mM) is “little difference”. The “maximum quantity of light emitted relative to the value for the system without DTT” value (33.3 mM) is on record as 1.8 times. The “RLU/200 (integrated quantity of light emitted for 200 seconds)” value is listed as 511,723,424 RLU/200 sec (final concentration 0.33 mM), 579,940,160 RLU/200 sec (final concentration 3.3 mM) and 667,250,048 RLU/200 sec (final concentration 33.3 mM). The “max RLU (maximum quantity of light emitted)” value (“max RLU” for short) (final concentration 0.33 mM) was 3,359,620 RLU/sec, the “max RLU” value (final concentration 3.3 mM) was 3,221,070 RLU/sec and the “max RLU” value (final concentration 33.3 mM) is recorded as 3,434,180 RLU/sec.

In the case of `Sc1nc2ccccc2s1` [2-mercaptobenzothiazole], the “emission pattern (glow vs flash luminescence)” value is reported as “glow luminescence”. Under “0.33 mM and 3.3 mM”, the “change of the maximum quantity of light emitted (RLU/sec) as compared with the system containing no reagent (0 mM)” value is listed as “increased only slightly” and the “increase in the integrated quantity of light emitted (RLU/200 sec) as compared with the system containing no reagent (0 mM)” value is reported as “about 1.7 fold”. Also, the “maximum and integrated quantity of light emitted relative to the system at a lower concentration” value (33.3 mM vs 3.3 mM) is recorded as “nearly two-thirds”. Moreover, under “final concentration 0.33 mM”, the “RLU/200 (integrated quantity of light emitted for 200 seconds)” value is on record as 492,116,224 RLU/200 sec and the “max RLU” value is 3,267,710 RLU/sec. Moreover, under “final concentration 3.3 mM”, the “RLU/200 (integrated quantity of light emitted for 200 seconds)” value is given as 622,578,816 RLU/200 sec and the “max RLU” value is given as 3,410,350 RLU/sec. Also, where the note is “final concentration 33.3 mM”, the “RLU/200 (integrated quantity of light emitted for 200 seconds)” value is 421,084,568 RLU/200 sec and the “max RLU” value is on record as 2,603,090 RLU/sec.

As for `CCOC(=S)[S-].[K+]` [Potassium xanthogenate, potassium xanthogenate], the “emission pattern (glow vs flash luminescence)” value is “glow luminescence”. For the same molecule, for the setting “0.33 mM”, the “change of the maximum quantity of light emitted (RLU/sec) as compared with the system containing no reagent (0 mM)” value is reported as “increased only slightly” and the “increase in the integrated quantity of light emitted (RLU/200 sec) as compared with the system containing no reagent (0 mM)” value is given as “about 1.7 fold”. For the same molecule, the “maximum and integrated quantity of light emitted relative to the system at a lower concentration” value (33.3 mM vs 0.33 mM) was “about one-thirteenth”. In addition, for the setting “final concentration 0.33 mM”, the “RLU/200 (integrated quantity of light emitted for 200 seconds)” value is 616,747,200 RLU/200 sec and the “max RLU” value is reported as 3,232,620 RLU/sec. Where the note is “final concentration 3.3 mM”, the “RLU/200 (integrated quantity of light emitted for 200 seconds)” value is on record as 92,549,720 RLU/200 sec and the “max RLU” value is given as 473,070 RLU/sec. Also, under “final concentration 33.3 mM”, the “RLU/200 (integrated quantity of light emitted for 200 seconds)” value is reported as 4,519,292 RLU/200 sec and the “max RLU” value is given as 24,210 RLU/sec.

Take `CCN(CC)C(=S)[S-].[Na+]` [Sodium diethyldithiocarbamate, sodium diethyldithiocarbamate]: the “emission pattern (glow vs flash luminescence)” value is reported as “glow luminescence”. For the setting “0.33 mM and 3.3 mM”, the “change of the maximum quantity of light emitted (RLU/sec) as compared with the system containing no reagent (0 mM)” value is reported as “increased only slightly” and the “increase in the integrated quantity of light emitted (RLU/200 sec) as compared with the system containing no reagent (0 mM)” value is recorded as “about 1.7 fold”. Besides, the “maximum and integrated quantity of light emitted relative to the systems at lower concentrations” value (33.3 mM vs 0.33 mM, 3.3 mM) is on record as “about two-fifths”. Also, where the note is “final concentration 0.33 mM”, the “RLU/200 (integrated quantity of light emitted for 200 seconds)” value is recorded as 592,116,224 RLU/200 sec and the “max RLU” value was 3,267,710 RLU/sec. Where the note is “final concentration 3.3 mM”, the “RLU/200 (integrated quantity of light emitted for 200 seconds)” value was 611,260,800 RLU/200 sec and the “max RLU” value is 3,141,880 RLU/sec. Moreover, where the note is “final concentration 33.3 mM”, the “RLU/200 (integrated quantity of light emitted for 200 seconds)” value is on record as 246,535,408 RLU/200 sec and the “max RLU” value is 1,261,630 RLU/sec.

The record behind these values is patent US6852499B2, “Luciferase detection reagent kits and luciferase detection method using the kit” (Toyo Ink Mfg. Co., Ltd., priority 2002, dated 2005).
